Data from patent US20240190916A1, “NOVEL PEPTIDE” (HYSENSBIO, priority 2022, published 2024).

Columns and labels:
BSP = experiment: Western blot of BSP protein in human dental pulp cells; assay type: cell-based; details: 1, 10, and 50 ug, FIG. 3
Description: (§1) FIG. 3 is a result of confirming expressions of DSP and BSP proteins by Western blot after treating human dental pulp cells with the novel peptide (SEQ ID NO: 1) in a concentration-dependent manner (1, 10, and 50 ug) to confirm the effect of novel peptides on expressions of marker proteins for differentiation of odontoblasts, osteoblasts and cementoblasts.

DSPP gene = experiment: DSPP mRNA level by real-time PCR in human dental pulp cells; assay type: cell-based; details: peptide 10 ug/ml, compared to untreated control
Description: Human pulp tissue cells were isolated from wisdom teeth of 10 adults (18-22 years old) at Seoul National University Dental Hospital. Specifically, all experiments were performed with the patient's consent after approval from the hospital's Institutional Review Board, and wisdom teeth are cut according to a method of Jung H S et al (J Mol Histol. (2011)), exposing the pulp and isolating the pulp with forceps. The isolated pulp was minced on both sides, placed in a 60 mm dish, covered with a cover slip, and then cultured in Dulbecco's Modified Eagle medium. It is known that human dental pulp cells can differentiate into odontoblasts, osteoblasts, cementoblasts and periodontal ligament cells under various conditions (Tissue Eng Part A. 2014 April; 20(7-8): 1342-51).
(§2) Total RNA of human dental pulp cells and mesenchymal stem cells was isolated using a TRIzol reagent. cDNA was synthesized using 2 μg of total RNA, 1 μl of reverse transcriptase, and 0.5 μg of oligo (dT). The synthesized cDNA was used for real-time polymerase chain reaction. The real-time polymerase chain reaction was performed in ABI PRISM 7500 sequence detection system (Applied Biosystems) using SYBR GREEN PCR Master Mix (Takara, Japan). The real-time polymerase chain reaction was performed at 94° C., 1 min; 95° C., 15 sec-60° C., 34 sec was performed under the condition of repeating 40 cycles. An analysis of the results was evaluated using a comparative cycle threshold (CT) method, and primer base sequences are listed in Table 9.
The effect of each group of peptides on DSPP mRNA expression was confirmed by real-time PCR (Table 10).

BSP gene = experiment: BSP mRNA level by real-time PCR in human-derived mesenchymal stem cells; assay type: cell-based; details: compared to untreated control
Description: (§3) It was cultured at 37° C. in humid air containing 5% CO2 and used for the experiment. Human mesenchymal stem cells (hBMSCs) were purchased from Lonza (LONZA, Switzerland) and used. hBMSCs were cultured in a-MEM (Invitrogen) medium supplemented with 10% heat-inactivated bovine serum.
as §2
(§4) BSP and DMP1 genes are used as markers for differentiation of osteoblasts and cementoblasts, and are known as important genes for calcification of a bone and cementum. The effects of each group of peptides on BSP and DMP1 mRNA expression were confirmed by a real-time PCR (Tables 11 and 12).

[1] = test system: human dental pulp cells (hDPCs) transplanted into the subcutaneous tissue of mice with impaired immune systems; experiment: In vivo transplantation of hDPCs with HA/TCP and histological analysis
Description: Human dental pulp cells (hDPCs) were isolated and used for in vivo transplantation experiments. hDPCs (2×10^6 cells) were mixed with 100 mg of hydroxy apatite/tricalcium phosphate (HA/TCP) ceramic powder (Zimmer, USA) alone or along with peptides (10 μg) or 0.5% fibrin gel, and then transplanted into mice (NIH-bg-nu-xid; Harlan Laboratories, Indianapolis, IN) with damaged immune systems for 6 and 12 weeks. Thereafter, samples were harvested, fixed in 4% paraformaldehyde, decalcified in 10% EDTA (pH 7.4), embedded in paraffin, and stained with hematoxylin-eosin (H-E) (Vector Labs).

[2] = test system: damaged dentin of beagle dog's teeth; experiment: Dentin regeneration in dentin damage model; assay type: in vivo; details: 10 ug per tooth, 3 weeks after application, vs control group, FIG. 4
Description: Three beagle dogs (12-16 kg; […]) were anesthetized by inhalation of Geloran, intravenously injected with Zoletil (5 mg/kg) and Xylazine (0.2-0.5 mg/kg), and then treated with Lidocaine (Lidocaine 2% with 1:80,000 epinephrine). After damaging the dentin of the premolars and molar teeth in the mandible of the beagle dog using a dental bur, 10 ug of SEQ ID NO: 1 peptide of group 1 was treated per tooth. After 6 weeks, a beagle dog was sacrificed by administering an excessive amount (90-120 mg/kg) of pentobarbital. The tooth of the beagle dog was extracted, fixed with 10% formalin, calcium was removed by adding 5% formic acid, molded, and embedded in paraffin, and then a tissue section with a thickness of 5 μm were obtained, a obtained tissue section was stained with hematoxylin and eosin, and then analyzed using by an optical microscope equipped with a digital camera (LEICA ICC50 camera, Germany).
FIG. 4 is the result of histological evaluation 3 weeks after application of 10 ug of the novel peptide (SEQ ID NO: 1) after damaging the dentine of beagle dog's teeth in order to confirm that the novel peptide induces physiological dentin regeneration in a animal model of damaged dentin.

DMP1 gene = experiment: DMP1 mRNA level by real-time PCR in human-derived mesenchymal stem cells; assay type: cell-based; details: compared to untreated control
Description: as §3, §2, §4

DSP = experiment: Western blot of DSP protein in human dental pulp cells; assay type: cell-based; details: 1, 10, and 50 ug, FIG. 3
Description: as §1

Row | Sequence | expression of BSP protein (marker for differentiation of osteoblasts and cementoblasts) (BSP) | mRNA level of DSPP gene, Average (DSPP gene) | mRNA level of BSP gene, BSP gene expression, Average (BSP gene) | periodontal ligament formation, hematoxylin-eosin histology ([1]; 10 ug peptide with hDPCs, 6 weeks after transplantation, vs hDPCs-only control, FIG. 6) | proportion of hard tissue formation ([1]; 10 ug peptide with hDPCs, 12 weeks after transplantation, vs hDPCs-only control, FIG. 5) | hard tissue (bone/cementum-like tissue) formation, hematoxylin-eosin histology ([1]; hDPCs with HA/TCP, 12 weeks after transplantation, FIG. 5) | physiological dentin regeneration, histological evaluation [2] | mRNA level of DMP1 gene, DMP1 gene expression, Average (DMP1 gene) | expression of DSP protein (marker for differentiation of odontoblasts) (DSP)
1 | KYKAKKKNYK [SEQ ID NO: 1] | increased in a concentration-dependent manner | 9.028 fold | 2.892 fold | periodontal ligament fiber bundle (black triangle) were formed | increased | more similar hard tissue formation as the BMP-2 treated group compared to the control group | physiological dentin was formed in the lower part the damaged dentine | 11.401 fold | increased in a concentration-dependent manner
2 | KYKARKKNYK [SEQ ID NO: 4] |  | 9.702 fold | 2.307 fold |  |  |  |  | 9.720 fold | 
3 | KYKARKKSYK [SEQ ID NO: 12] |  | 2.911 fold | 1.918 fold |  |  |  |  | 7.997 fold | 
4 | KYKARKRNYK [SEQ ID NO: 8] |  | 7.021 fold | 2.617 fold |  |  |  |  | 11.120 fold | 
5 | KYKARKRSYK [SEQ ID NO: 16] |  | 2.906 fold | 2.307 fold |  |  |  |  | 10.014 fold | 
6 | KYKARRKNYK [SEQ ID NO: 6] |  | 7.705 fold | 2.935 fold |  |  |  |  | 9.897 fold | 
7 | KYKARRKSYK [SEQ ID NO: 14] |  | 2.136 fold | 1.729 fold |  |  |  |  | 9.407 fold | 
8 | KYKARRRNYK [SEQ ID NO: 7] |  | 8.215 fold | 2.548 fold |  |  |  |  | 10.236 fold | 
9 | KYKARRRSYK [SEQ ID NO: 15] |  | 3.620 fold | 2.119 fold |  |  |  |  | 8.991 fold | 
10 | KYRAKKKNYK [SEQ ID NO: 17] |  | 2.192 fold | 2.392 fold |  |  |  |  | 9.400 fold | 
11 | KYRAKKKSYK [SEQ ID NO: 25] |  | 1.919 fold | 2.152 fold |  |  |  |  | 9.055 fold | 
12 | KYRAKKRNYK [SEQ ID NO: 18] |  | 2.061 fold | 2.316 fold |  |  |  |  | 9.161 fold | 
13 | KYRAKKRSYK [SEQ ID NO: 26] |  | 1.811 fold | 2.081 fold |  |  |  |  | 8.991 fold | 
14 | KYRAKRKNYK [SEQ ID NO: 19] |  | 1.772 fold | 2.537 fold |  |  |  |  | 8.999 fold | 
15 | KYRAKRKSYK [SEQ ID NO: 27] |  | 1.620 fold | 2.195 fold |  |  |  |  | 8.537 fold | 
16 | KYRAKRRNYK [SEQ ID NO: 21] |  | 2.167 fold | 1.995 fold |  |  |  |  | 9.100 fold | 
17 | KYRAKRRSYK [SEQ ID NO: 29] |  | 2.125 fold | 1.978 fold |  |  |  |  | 9.525 fold | 
18 | KYRARKKNYK [SEQ ID NO: 20] |  | 1.702 fold | 2.91 fold |  |  |  |  | 8.537 fold | 
19 | KYRARKKSYK [SEQ ID NO: 28] |  | 2.311 fold | 2.084 fold |  |  |  |  | 9.198 fold | 
20 | KYRARKRNYK [SEQ ID NO: 24] |  | 2.021 fold | 2.276 fold |  |  |  |  | 9.333 fold | 
21 | KYRARKRSYK [SEQ ID NO: 32] |  | 1.861 fold | 1.893 fold |  |  |  |  | 8.107 fold | 
22 | KYRARRKNYK [SEQ ID NO: 22] |  | 2.005 fold | 1.893 fold |  |  |  |  | 7.997 fold | 
23 | KYRARRKSYK [SEQ ID NO: 30] |  | 1.836 fold | 2.222 fold |  |  |  |  | 8.683 fold | 
24 | KYRARRRNYK [SEQ ID NO: 23] |  | 1.915 fold | 2.037 fold |  |  |  |  | 9.105 fold | 
25 | KYRARRRSYK [SEQ ID NO: 31] |  | 1.620 fold | 1.798 fold |  |  |  |  | 9.100 fold | 
